Reference: the Kinase Knowledgebase extract (Sharma et al. 2016)

Target: ROCK2 (human) (UniProt O75116)
Assay: Inhibition of ROCK2 Kinase Activity

Chain of ROCK2 (human) (O75116 whole entry, looked up): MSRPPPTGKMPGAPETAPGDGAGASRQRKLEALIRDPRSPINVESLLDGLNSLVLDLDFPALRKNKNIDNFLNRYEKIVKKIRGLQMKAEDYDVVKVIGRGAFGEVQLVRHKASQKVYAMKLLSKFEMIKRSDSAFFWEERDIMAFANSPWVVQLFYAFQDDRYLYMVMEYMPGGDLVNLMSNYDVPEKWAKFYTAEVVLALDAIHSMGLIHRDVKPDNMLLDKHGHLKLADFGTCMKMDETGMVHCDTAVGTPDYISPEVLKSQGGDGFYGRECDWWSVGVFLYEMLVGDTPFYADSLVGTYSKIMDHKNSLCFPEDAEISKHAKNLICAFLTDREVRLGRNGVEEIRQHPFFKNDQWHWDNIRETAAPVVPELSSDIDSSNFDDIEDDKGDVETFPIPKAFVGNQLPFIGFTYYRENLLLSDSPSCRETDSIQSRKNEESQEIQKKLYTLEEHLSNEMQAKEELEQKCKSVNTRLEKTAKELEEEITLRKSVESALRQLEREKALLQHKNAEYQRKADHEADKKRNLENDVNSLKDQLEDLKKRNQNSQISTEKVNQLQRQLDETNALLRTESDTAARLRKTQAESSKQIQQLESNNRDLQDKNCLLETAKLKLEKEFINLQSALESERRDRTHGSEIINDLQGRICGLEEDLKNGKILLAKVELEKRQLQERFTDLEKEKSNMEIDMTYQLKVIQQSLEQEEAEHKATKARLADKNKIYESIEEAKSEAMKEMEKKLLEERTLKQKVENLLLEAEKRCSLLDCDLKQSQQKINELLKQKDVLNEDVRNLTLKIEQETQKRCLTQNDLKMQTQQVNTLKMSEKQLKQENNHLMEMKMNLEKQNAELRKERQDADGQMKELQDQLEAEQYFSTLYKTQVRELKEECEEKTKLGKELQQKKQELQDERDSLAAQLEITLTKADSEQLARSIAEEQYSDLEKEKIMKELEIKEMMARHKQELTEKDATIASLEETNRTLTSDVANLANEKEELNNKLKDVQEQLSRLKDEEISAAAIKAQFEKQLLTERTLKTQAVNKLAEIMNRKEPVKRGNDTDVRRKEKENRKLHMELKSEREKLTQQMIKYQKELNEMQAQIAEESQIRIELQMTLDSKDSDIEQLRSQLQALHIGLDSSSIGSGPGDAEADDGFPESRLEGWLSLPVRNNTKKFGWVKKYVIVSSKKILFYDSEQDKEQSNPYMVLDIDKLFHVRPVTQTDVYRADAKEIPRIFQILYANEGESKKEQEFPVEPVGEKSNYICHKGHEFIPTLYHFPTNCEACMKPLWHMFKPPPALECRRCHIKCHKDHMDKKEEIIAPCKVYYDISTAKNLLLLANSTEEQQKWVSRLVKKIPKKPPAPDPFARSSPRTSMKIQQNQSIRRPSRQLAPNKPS

Row | IC50 [nM] | SMILES
1 | < 1000 | O=C(Nc1cc2cc[nH]c(=O)c2cc1Cl)[C@H](O)c1ccccc1
2 | < 1000 | O=C(Nc1ccc2c(=O)[nH]cnc2c1)C1CCNCC1
3 | < 1000 | O=C(Nc1cc2cc[nH]c(=O)c2cc1Cl)[C@@H](O)C1CCCCC1
4 | < 1000 | CN1CCC(C(=O)Nc2cc3cc[nH]c(=O)c3cc2C#N)CC1
5 | < 1000 | O=C(CNCC1CCCCC1)Nc1ccc2c(=O)[nH]ccc2c1
6 | < 1000 | O=C(Nc1cc2cc[nH]c(=O)c2cc1Cl)C1(c2ccccc2)CCNC1 (centres undefined)
7 | < 1000 | CC(C)CC(N)C(=O)Nc1ccc2c(=O)[nH]cnc2c1 (centres undefined)
8 | < 1000 | Cc1ccc([C@@H](N)C(=O)Nc2cc3cc[nH]c(=O)c3cc2Cl)cc1
9 | < 1000 | O=C(Nc1cc2cc[nH]c(=O)c2cc1Cl)c1ccc(Br)cc1Cl
10 | < 1000 | O=C(Nc1ccc2c(=O)[nH]cnc2c1)C1CCCN1 (centres undefined)
11 | < 1000 | CC(C)[C@@H](O)C(=O)Nc1cc2cc[nH]c(=O)c2cc1Cl
12 | < 1000 | N[C@@H](CC1CCCCC1)C(=O)Nc1cc2cc[nH]c(=O)c2cc1Cl
13 | < 1000 | O=C(Nc1cc2cc[nH]c(=O)c2cc1Cl)[C@@H]1CCCCN1
14 | < 1000 | O=C(Nc1cc2cc[nH]c(=O)c2cc1Cl)C1CCN(C2CCCCC2)CC1
15 | < 1000 | O=C(Nc1cc2cc[nH]c(=O)c2cc1Cl)[C@H]1CNC[C@@H]1c1cccc(Br)c1
16 | < 1000 | CCN(C)C(C(=O)Nc1cc2cc[nH]c(=O)c2cc1Cl)c1ccccc1 (centres undefined)
17 | < 1000 | O=C(CN[C@]12C[C@H]3C[C@H](C[C@H](C3)C1)C2)Nc1cc2cc[nH]c(=O)c2cc1Cl
18 | < 1000 | CC(C)[C@@H](N)C(=O)Nc1ccc2c(=O)[nH]cnc2c1
19 | < 1000 | O=C(Nc1cc2cc[nH]c(=O)c2cc1Cl)[C@H]1CCCNC1
20 | < 1000 | O=C(Nc1ccc2c(=O)[nH]ccc2c1Cl)[C@H]1CNC[C@@H]1c1ccccc1
21 | < 1000 | COc1cc2c(=O)[nH]ccc2cc1NC(=O)[C@H](N)C1CCCCC1
22 | < 1000 | O=C(Nc1cc2cc[nH]c(=O)c2cc1Cl)c1ccccc1Br
23 | < 1000 | CCOC(=O)CC(=O)Nc1cc2cc[nH]c(=O)c2cc1Cl
24 | < 1000 | O=c1[nH]ccc2cc(NC(=O)[C@H]3CC[C@H](C(=O)O)CC3)c(Cl)cc12
25 | < 1000 | CC1(C(=O)Nc2cc3cc[nH]c(=O)c3cc2Cl)CCN(S(C)(=O)=O)CC1
26 | < 1000 | CN1CCC(C(=O)Nc2ccc3c(=O)[nH]ccc3c2)CC1

Row | IC50 [nM] | SMILES
27 | < 1000 | O=C(Nc1ccc2c(=O)[nH]ccc2c1)c1cccs1
28 | < 1000 | N[C@H]1CC[C@](C(=O)Nc2cc3cc[nH]c(=O)c3cc2Cl)(c2ccc(Cl)cc2)CC1
29 | < 1000 | O=C(Nc1cc2cc[nH]c(=O)c2cc1Cl)[C@H](O)C1CCCCC1
30 | < 1000 | CN(C)CC(=O)Nc1ccc2c(=O)[nH]ccc2c1
31 | < 1000 | N#Cc1ccccc1C(=O)Nc1cc2cc[nH]c(=O)c2cc1Cl
32 | < 1000 | C[C@@H]1CNCC[C@@H]1C(=O)Nc1cc2cc[nH]c(=O)c2cc1Cl
33 | < 1000 | C[C@@H](Oc1ccccc1)C(=O)Nc1cc2cc[nH]c(=O)c2cc1Cl
34 | < 1000 | N[C@H](CC1CCCCC1)C(=O)Nc1cc2cc[nH]c(=O)c2cc1Cl
35 | < 1000 | Cc1cc(C(=O)Nc2ccc3c(=O)[nH]cnc3c2)n(C)n1
36 | < 1000 | O=C(Nc1ccc2c(=O)[nH]ccc2c1)[C@@H]1CCCNC1
37 | < 1000 | Cc1ccc(F)cc1C(=O)Nc1cc2cc[nH]c(=O)c2cc1Cl
38 | < 1000 | N[C@@H](C(=O)Nc1ccc2c(=O)[nH]ccc2c1)C1CCCCC1
39 | < 1000 | O=C(Nc1cc2cc[nH]c(=O)c2cc1Cl)c1cc([N+](=O)[O-])ccc1Cl
40 | < 1000 | N[C@H]1C[C@@H](C(=O)Nc2cc3cc[nH]c(=O)c3cc2Cl)C1
41 | < 1000 | O=C(Nc1cc2cc[nH]c(=O)c2cc1Cl)[C@H](O)c1cccc(Cl)c1
42 | < 1000 | O=C(Nc1cc2cc[nH]c(=O)c2cc1Cl)c1ccc(N2CCOCC2)cc1Cl
43 | < 1000 | CC(C)(C)CC(=O)Nc1cc2cc[nH]c(=O)c2cc1Cl
44 | < 1000 | CS(=O)(=O)c1ccc(C(=O)Nc2cc3cc[nH]c(=O)c3cc2Cl)cc1
45 | < 1000 | CC(C)C(C(=O)Nc1cc2cc[nH]c(=O)c2cc1Cl)c1ccc(Cl)cc1 (centres undefined)
46 | < 1000 | O=c1[nH]ccc2cc(NC(=O)[C@H]3CC[C@@H](O)CC3)c(Cl)cc12
47 | < 1000 | O=C(Nc1cc2cc[nH]c(=O)c2cc1Cl)c1cccc2c1CCNC2
48 | < 1000 | O=C(COc1ccc(Cl)cc1)Nc1ccc2c(=O)[nH]ccc2c1
49 | < 1000 | O=C(Nc1cc2cc[nH]c(=O)c2cc1Cl)C1CNCC(c2ccccc2)C1 (centres undefined)
50 | < 1000 | O=C(Nc1cc2cc[nH]c(=O)c2cc1Cl)c1cccnc1Sc1ccccc1
51 | < 1000 | O=C(Nc1cc2cc[nH]c(=O)c2cc1Cl)[C@@H](O)c1ccccc1
52 | < 1000 | O=C(Nc1cc2cc[nH]c(=O)c2cc1Cl)c1ccc2c(c1)CCNC2

Row | IC50 [nM] | SMILES
53 | < 1000 | COc1cc2c(=O)[nH]ccc2cc1NC(=O)[C@H](OC)c1ccccc1
54 | < 1000 | CN1CCC(C(=O)Nc2cc3cc[nH]c(=O)c3cc2Br)CC1
55 | < 1000 | O=C(Nc1c(Cl)cc2c(=O)[nH]ccc2c1F)[C@H]1CNC[C@@H]1c1ccccc1
56 | < 1000 | N#CCC(=O)Nc1cc2cc[nH]c(=O)c2cc1Cl
57 | < 1000 | CC(=O)O[C@H]1CC[C@@H](C(=O)Nc2cc3cc[nH]c(=O)c3cc2Cl)CC1
58 | < 1000 | N[C@H](Cc1ccncc1)C(=O)Nc1cc2cc[nH]c(=O)c2cc1Cl
59 | < 1000 | O=C(Nc1cc2cc[nH]c(=O)c2cc1Cl)C1CCN(Cc2ccccc2)CC1
60 | < 1000 | O=C(Nc1cc2cc[nH]c(=O)c2cc1Br)[C@H]1CNC[C@@H]1c1ccccc1
61 | < 1000 | CC(C)N1CCC(C(=O)Nc2cc3cc[nH]c(=O)c3cc2Cl)CC1
62 | < 1000 | O=C(Nc1cc2cc[nH]c(=O)c2cc1Cl)C(=O)c1ccccc1
63 | < 1000 | NCCC(=O)Nc1cc2cc[nH]c(=O)c2cc1Cl
64 | < 1000 | NC1(C(=O)Nc2ccc3c(=O)[nH]ccc3c2)CCCCC1
65 | < 1000 | O=c1[nH]ccc2cc(NC(=O)[C@H]3CC[C@@H](C(=O)O)CC3)c(Cl)cc12
66 | < 1000 | O=C(O)CC(C(=O)Nc1cc2cc[nH]c(=O)c2cc1Cl)c1ccccc1 (centres undefined)
67 | < 1000 | O=C(Nc1ccc2c(=O)[nH]ccc2c1)c1cccnc1Sc1ccccc1
68 | < 1000 | CS(=O)(=O)c1ccc(C(=O)Nc2cc3cc[nH]c(=O)c3cc2Cl)c(Cl)c1
69 | < 1000 | O=C(Nc1cc2cc[nH]c(=O)c2cc1Cl)c1ccc(Cl)cc1Cl
70 | < 1000 | O=C(Nc1cc2cc[nH]c(=O)c2cc1Cl)[C@H]1CCCCN1
71 | < 1000 | C[C@H](Oc1ccccc1)C(=O)Nc1cc2cc[nH]c(=O)c2cc1Cl
72 | < 1000 | NC(C(=O)Nc1cc2cc[nH]c(=O)c2cc1Cl)c1cccc(Cl)c1 (centres undefined)
73 | < 1000 | COc1cccc(CC(=O)Nc2ccc3c(=O)[nH]ccc3c2)c1
74 | < 1000 | O=C(Nc1ccc2c(=O)[nH]ccc2c1)c1cc(Cl)sc1Cl
75 | < 1000 | COc1cc2c(=O)[nH]ccc2cc1NC(=O)[C@@H]1CCC[C@H](N)C1
76 | < 1000 | N[C@H](Cc1ccc(Cl)cc1)C(=O)Nc1cc2cc[nH]c(=O)c2cc1Cl
77 | < 1000 | O=C(Nc1cc2cc[nH]c(=O)c2cc1Cl)c1cccc([N+](=O)[O-])c1Cl

Row | SMILES | IC50 [nM]
78 | O=C(Nc1cc2cc[nH]c(=O)c2cc1Cl)[C@H]1CNC[C@@H]1c1ccc(Cl)cc1 | < 1000
79 | O=C(Nc1cc2cc[nH]c(=O)c2cc1Br)[C@H]1CNC[C@@H]1c1ccc(Cl)cc1 | < 1000
